In ChEMBL document CHEMBL3885861, “Open TG-GATES”:

Species on record: Rattus norvegicus
Assay: Open TG-GATES - Regimen: Single
Format: toxicity, organism-based, Sprague-Dawley
Parameters: regimen Single, gender Male, age 6 weeks
Conditions: in vivo, po, 1000 mg/kg, route gavage, dose level High; for APTT / Bas / Eos / Fbg / Hb / Ht / Lym / MCH / MCHC / MCV / Mono / Neu / PT / Plat / RBC / Ret / WBC: tissue Blood; for KIDNEY_L / KIDNEY_R / KIDNEY_TOTAL: tissue Kidney; for LIVER: tissue Liver; for A/G / ALP / ALT / AST / BUN / CRE / Ca / Cl / DBIL / GLC / IP / LDH / Na / PL / RALB / TBIL / TC / TG / TP / gamma-GTP: tissue Plasma

NC(N)=Nc1nc(CSCCC(N)=NS(N)(=O)=O)cs1 [FAMOTIDINE]
TERMINAL_BW (3 h): 216.4 g | APTT (3 h): 18.8 s | Bas (3 h): 0% | Eos (3 h): 1% | Fbg (3 h): 209.8 mg/dL | Hb (3 h): 12.9 g/dL | Ht (3 h): 37.1% | Lym (3 h): 80.8% | MCH (3 h): 20.8 pg | MCHC (3 h): 34.8% | MCV (3 h): 59.8 fL | Mono (3 h): 2.8% | Neu (3 h): 14% | PT (3 h): 12.6 s | Plat (3 h): 124.2 x10_4/uL | RBC (3 h): 620.2 x10_4/ul | Ret (3 h): 7.6% | WBC (3 h): 90.8 x10_2/uL | KIDNEY_L (3 h): 1 g | KIDNEY_R (3 h): 1 g | KIDNEY_TOTAL (3 h): 1.9 g | LIVER (3 h): 10.2 g | A/G (3 h): 1.6 | ALP (3 h): 873.2 IU/L | ALT (3 h): 35.6 IU/L | AST (3 h): 66.6 IU/L | BUN (3 h): 9.4 mg/dL | CRE (3 h): 0.4 mg/dL | Ca (3 h): 10.7 mg/dL | Cl (3 h): 103.4 meq/L | DBIL (3 h): 0.07 mg/dL | GLC (3 h): 194.4 mg/dL | IP (3 h): 9 mg/dL | LDH (3 h): 188.8 IU/L | Na (3 h): 140 meq/L | PL (3 h): 149.4 mg/dL | RALB (3 h): 3.3 g/dL | TBIL (3 h): 0.1 mg/dL | TC (3 h): 81.2 mg/dL | TG (3 h): 51.8 mg/dL | TP (3 h): 5.3 g/dL | gamma-GTP (3 h): 1.2 IU/L | TERMINAL_BW (6 h): 212.4 g | APTT (6 h): 20.5 s | Bas (6 h): 0% | Eos (6 h): 1% | Fbg (6 h): 217.8 mg/dL | Hb (6 h): 13.4 g/dL | Ht (6 h): 37.7% | Lym (6 h): 74% | MCH (6 h): 21.7 pg | MCHC (6 h): 35.4% | MCV (6 h): 61.2 fL | Mono (6 h): 2.8% | Neu (6 h): 20.6% | PT (6 h): 12.5 s | Plat (6 h): 112.6 x10_4/uL | RBC (6 h): 617 x10_4/ul | Ret (6 h): 6.9% | WBC (6 h): 73.8 x10_2/uL | KIDNEY_L (6 h): 1 g | KIDNEY_R (6 h): 1 g | KIDNEY_TOTAL (6 h): 1.9 g | LIVER (6 h): 9 g | A/G (6 h): 1.6 | ALP (6 h): 885.4 IU/L | ALT (6 h): 31.8 IU/L | AST (6 h): 65.8 IU/L | BUN (6 h): 8.6 mg/dL | CRE (6 h): 0.4 mg/dL | Ca (6 h): 10.6 mg/dL | Cl (6 h): 104 meq/L | DBIL (6 h): 0.072 mg/dL | GLC (6 h): 192.4 mg/dL | IP (6 h): 8.9 mg/dL | LDH (6 h): 204.2 IU/L | Na (6 h): 141 meq/L | PL (6 h): 140.4 mg/dL | RALB (6 h): 3.4 g/dL | TBIL (6 h): 0.1 mg/dL | TC (6 h): 73 mg/dL | TG (6 h): 50.8 mg/dL | TP (6 h): 5.5 g/dL | gamma-GTP (6 h): 1.4 IU/L | TERMINAL_BW (9 h): 211.3 g | APTT (9 h): 16.7 s | Bas (9 h): 0% | Eos (9 h): 0.8% | Fbg (9 h): 222.2 mg/dL | Hb (9 h): 13.1 g/dL | Ht (9 h): 36.5% | Lym (9 h): 78% | MCH (9 h): 22 pg | MCHC (9 h): 35.9% | MCV (9 h): 61.4 fL | Mono (9 h): 2.4% | Neu (9 h): 17% | PT (9 h): 12.4 s | Plat (9 h): 112.4 x10_4/uL | RBC (9 h): 594.2 x10_4/ul | Ret (9 h): 7.3% | WBC (9 h): 68.5 x10_2/uL | KIDNEY_L (9 h): 1 g | KIDNEY_R (9 h): 1 g | KIDNEY_TOTAL (9 h): 1.9 g | LIVER (9 h): 8.6 g | A/G (9 h): 1.6 | ALP (9 h): 861.4 IU/L | ALT (9 h): 28 IU/L | AST (9 h): 59.8 IU/L | BUN (9 h): 9.8 mg/dL | CRE (9 h): 0.4 mg/dL | Ca (9 h): 10.3 mg/dL | Cl (9 h): 103.8 meq/L | DBIL (9 h): 0.052 mg/dL | GLC (9 h): 205.6 mg/dL | IP (9 h): 9 mg/dL | LDH (9 h): 150 IU/L | Na (9 h): 140 meq/L | PL (9 h): 151.4 mg/dL | RALB (9 h): 3.3 g/dL | TBIL (9 h): 0.1 mg/dL | TC (9 h): 85.2 mg/dL | TG (9 h): 27.2 mg/dL | TP (9 h): 5.4 g/dL | gamma-GTP (9 h): 0.8 IU/L | TERMINAL_BW (24 h): 223.1 g | APTT (24 h): 22.2 s | Bas (24 h): 0% | Eos (24 h): 1% | Fbg (24 h): 218.4 mg/dL | Hb (24 h): 13.3 g/dL | Ht (24 h): 37.1% | Lym (24 h): 77.2% | MCH (24 h): 21.8 pg | MCHC (24 h): 35.9% | MCV (24 h): 60.7 fL | Mono (24 h): 2.8% | Neu (24 h): 17.2% | PT (24 h): 12.3 s | Plat (24 h): 129.4 x10_4/uL | RBC (24 h): 612.2 x10_4/ul | Ret (24 h): 5.8% | WBC (24 h): 77.3 x10_2/uL | KIDNEY_L (24 h): 1 g | KIDNEY_R (24 h): 1 g | KIDNEY_TOTAL (24 h): 2.1 g | LIVER (24 h): 9.6 g | A/G (24 h): 1.6 | ALP (24 h): 1062.2 IU/L | ALT (24 h): 39 IU/L | AST (24 h): 65.4 IU/L | BUN (24 h): 14.4 mg/dL | CRE (24 h): 0.4 mg/dL | Ca (24 h): 10.5 mg/dL | Cl (24 h): 102.6 meq/L | DBIL (24 h): 0.078 mg/dL | GLC (24 h): 199.6 mg/dL | IP (24 h): 8.2 mg/dL | LDH (24 h): 165 IU/L | Na (24 h): 140.2 meq/L | PL (24 h): 137.6 mg/dL | RALB (24 h): 3.3 g/dL | TBIL (24 h): 0.1 mg/dL | TC (24 h): 76.2 mg/dL | TG (24 h): 67.4 mg/dL | TP (24 h): 5.5 g/dL | gamma-GTP (24 h): 1 IU/L
